Source: ChEMBL document CHEMBL1201862, “PubChem BioAssay data set” (2004)
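Method: 48-hour compound exposure of cells in 96-well plates, five concentrations, linear interpolation of endpoints. GI50 marks 50% less growth.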 The source made the active and inactive calls. No stated cut-off is given here; in the data, active = GI50 up to about 1.1 µM and inactive = higher.

Columns and labels:
Assay in all cases: growth of human tumour cells (NCI), 48 h
Malme-3M = test system: Malme-3M
OVCAR-4 = test system: OVCAR-4
HOP-62 = test system: HOP-62
HCT-15 = test system: HCT-15
SK-MEL-2 = test system: SK-MEL-2
NCI-H460 = test system: NCI-H460
SK-MEL-28 = test system: SK-MEL-28
UO-31 = test system: UO-31
DU-145 = test system: DU-145
SN12C = test system: SN12C
CAKI-1 = test system: CAKI-1
U-251 = test system: U-251
MCF7 = test system: MCF7
OVCAR-5 = test system: OVCAR-5
HL-60 = test system: HL-60
TK-10 = test system: TK-10
SF-295 = test system: SF-295

Row | Structure (SMILES) | GI50 (Malme-3M) | GI50 (OVCAR-4) | GI50 (HOP-62) | GI50 (HCT-15) [µM] | GI50 (SK-MEL-2) | GI50 (NCI-H460) | GI50 (SK-MEL-28) | GI50 (UO-31) | GI50 (DU-145) | GI50 (SN12C) | GI50 (CAKI-1) | GI50 (U-251) | GI50 (MCF7) | GI50 (OVCAR-5) | GI50 (HL-60) | GI50 (TK-10) | GI50 (SF-295)
1 | O=C1C=CC(=O)c2c1ccc1c3ccccc3n(-c3cccc([N+](=O)[O-])c3)c21 | 1.98 µM (inactive) | 2.81 µM (inactive) | > 10 µM (inactive) | 2.59 | > 10 µM (inactive) | > 10 µM (inactive) | 2.84 µM (inactive) | 2.4 µM (inactive) | > 10 µM (inactive) | 3.96 µM (inactive) | 2.55 µM (inactive) | 9.71 µM (inactive) | 2.29 µM (inactive) | > 10 µM (inactive) | 0.474 µM (active) | 2.24 µM (inactive) | > 10 µM (inactive)
2 | COc1ccc(N2C(=O)C3ON(Cc4ccc(CC(N)=O)cc4)C(c4c5ccccc5c(C)c5ccccc45)C3C2=O)cc1 (configuration not stated) | 35.8 µM (inactive) | 13.6 µM (inactive) | 40.4 µM (inactive) | 17.1 | 20.1 µM (inactive) | 13.6 µM (inactive) | > 100 µM (inactive) | 16.4 µM (inactive) | 20.9 µM (inactive) | 33.7 µM (inactive) | 20.7 µM (inactive) | 22.8 µM (inactive) | 17.7 µM (inactive) | 27 µM (inactive) | 14.9 µM (inactive) | 17.8 µM (inactive) | 22 µM (inactive)
3 | CC[C@@]1(O)C(=O)OCc2c1cc1n(c2=O)Cc2c-1nc1ccc(N)cc1c2CC[Si](C)(C)C | < 0.0115 µM (active) | 0.015 µM (active) | < 0.01 µM (active) | 0.0153 | 0.0409 µM (active) | < 0.01 µM (active) | 0.0227 µM (active) | < 0.01 µM (active) | < 0.01 µM (active) | < 0.01 µM (active) | < 0.01 µM (active) | < 0.01 µM (active) | < 0.01 µM (active) | < 0.0223 µM (active) | < 0.01 µM (active) | 0.051 µM (active) | < 0.01 µM (active)
4 | O=c1oc2cc(/N=C/c3ccccc3Cl)ccc2c2ccccc12 | > 100 µM (inactive) | > 100 µM (inactive) | > 100 µM (inactive) | > 100 | > 100 µM (inactive) | > 100 µM (inactive) | > 100 µM (inactive) | 40.1 µM (inactive) | > 100 µM (inactive) | > 100 µM (inactive) | > 100 µM (inactive) | > 100 µM (inactive) | 14.2 µM (inactive) | > 100 µM (inactive) | 57.1 µM (inactive) | – | > 100 µM (inactive)
5 | CN1CCc2c(sc3ncn(Nc4ccc(F)cc4)c(=N)c23)C1 | > 100 µM (inactive) | > 100 µM (inactive) | > 100 µM (inactive) | > 100 | > 100 µM (inactive) | > 100 µM (inactive) | > 100 µM (inactive) | – | > 100 µM (inactive) | > 100 µM (inactive) | > 100 µM (inactive) | > 100 µM (inactive) | > 100 µM (inactive) | > 100 µM (inactive) | > 100 µM (inactive) | > 100 µM (inactive) | > 100 µM (inactive)
6 | COc1cc(S(=O)(=O)Nc2ccc(-c3csc(N4C(=O)C(Cl)C4c4ccccc4)n3)cc2)ccc1Cl (configuration not stated) | 22.3 µM (inactive) | 52.6 µM (inactive) | 69.2 µM (inactive) | > 100 | > 100 µM (inactive) | < 0.01 µM (active) | 66.5 µM (inactive) | 25 µM (inactive) | 16 µM (inactive) | 24.9 µM (inactive) | > 100 µM (inactive) | – | 27.1 µM (inactive) | 47.4 µM (inactive) | 54.6 µM (inactive) | > 100 µM (inactive) | > 100 µM (inactive)
7 | CCCNC1=C2C[C@@H](C)C[C@@H](OC)[C@@H](OC(=O)CCCN)[C@H](C)/C=C(\C)[C@@H](OC(N)=O)[C@H](OC)/C=C\C=C(/C)C(=O)NC(=CC1=O)C2=O | 12.4 µM (inactive) | 18.7 µM (inactive) | 15.6 µM (inactive) | 21.5 | 14.9 µM (inactive) | 11.2 µM (inactive) | 17.6 µM (inactive) | 19.2 µM (inactive) | 12.1 µM (inactive) | 22.7 µM (inactive) | 20.3 µM (inactive) | 11.4 µM (inactive) | 7.69 µM (inactive) | 15.2 µM (inactive) | 2.13 µM (inactive) | 17.9 µM (inactive) | 18.7 µM (inactive)
8 | COC1=CC(=O)c2c(c(COC(C)=O)cn2C)C1=O | 0.0343 µM (active) | 0.257 µM (active) | – | 0.0197 | 0.163 µM (active) | 0.115 µM (active) | 0.22 µM (active) | 0.159 µM (active) | 0.0457 µM (active) | 0.0622 µM (active) | 0.0405 µM (active) | 0.129 µM (active) | 0.184 µM (active) | 0.0223 µM (active) | 0.299 µM (active) | 0.0408 µM (active) | 0.0286 µM (active)
